In PMC5607274, “An iterative compound screening contest method for identifying target protein inhibitors using the tyrosine-protein kinase Yes” (Scientific Reports, 2017):

Molecular target: T1, human recombinant Yes [a.a. 2–543 (end)] (Homo sapiens, UniProt P07947)
T1 construct: human recombinant Yes [a.a; 2–543 (end)]; purchased BPS Bioscience 40488
Experiment: ADP-Glo kinase assay, inhibition rates of Yes phosphorylation activity (first and second screening)
Assay type: biochemical
Settings: 10 μmol L−1 compound; for First screening IR (inhibition rate): mean of n = 4 wells
How it was run: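 Hits from a first pass were rescreened after re-dissolution from fresh powder. The first pass reported the mean inhibition rate of quadruplicate wells per compound. Activity was that of recombinant human Yes [a.a. 2–543] kinase, read out with the ADP-Glo ADP-detection method.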

T1 sequence (P07947 2-543): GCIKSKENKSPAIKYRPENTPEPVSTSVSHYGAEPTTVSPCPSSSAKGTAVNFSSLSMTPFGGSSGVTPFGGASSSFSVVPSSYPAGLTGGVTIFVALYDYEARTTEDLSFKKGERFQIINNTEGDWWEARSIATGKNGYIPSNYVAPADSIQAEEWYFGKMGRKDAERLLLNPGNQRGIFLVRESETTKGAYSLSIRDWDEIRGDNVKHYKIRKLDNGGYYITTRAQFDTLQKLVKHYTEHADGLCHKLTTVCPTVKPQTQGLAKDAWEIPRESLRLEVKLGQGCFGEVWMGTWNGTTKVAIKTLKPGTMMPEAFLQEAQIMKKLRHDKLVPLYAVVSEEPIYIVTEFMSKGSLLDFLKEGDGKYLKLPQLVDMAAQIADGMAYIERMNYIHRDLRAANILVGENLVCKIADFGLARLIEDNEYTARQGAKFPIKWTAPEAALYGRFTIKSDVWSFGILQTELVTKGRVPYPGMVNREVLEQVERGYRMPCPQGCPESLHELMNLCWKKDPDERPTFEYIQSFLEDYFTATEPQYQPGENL

Row | Compound | First screening IR (inhibition rate) [%] | Second screening IR (inhibition rate) (second screening, dissolved from fresh powder, n = 4) [%]
1 | Cc1ccc(S(=O)(=O)NC(=O)c2cc(C)n(CCCn3ccnc3)c2C)cc1 [Compound Z55892329] | -11 | –
2 | CC1CC(C)CN(S(=O)(=O)c2cc(S(C)(=O)=O)ccc2Cl)C1 (stereo not drawn) [Compound Z355129038] | 12 | –
3 | c1ccc(-n2ncc3c(SCCc4ccncc4)ncnc32)cc1 [Compound Z103069550] | 11 | –
4 | Cn1cncc1CC(=O)Nc1ccc2nc(-c3cc(F)ccc3F)[nH]c2c1 [Compound Z1737110153] | 6 | –
5 | CCOC(=O)c1c(N)n(CC(C)NC(=O)C2CC2)c2nc3ccccc3nc12 (stereo not drawn) [Compound Z56790662] | -2 | –
6 | Cc1cc(F)ccc1S(=O)(=O)Nc1ccc(C(=O)Nc2cccc(CO)c2)cc1 [Compound Z32804094] | 11 | –
7 | CN1CCN(S(=O)(=O)CCS(C)(=O)=O)CC1 [Compound Z1238645651] | -2 | –
8 | Oc1cncc(/C=C/c2nc(-c3ccc(Oc4ccc(F)cc4)nc3)no2)c1 [Compound Z1642148338] | -13 | –
9 | CC(=O)c1cccc(NC(=O)c2cc(-c3ccco3)nc3c2cnn3C(C)C)c1 [Compound Z216416610] | -1 | –
10 | Cc1ccc(NC(=O)c2ccc(N3CC(O)=C(c4nc5ccccc5s4)C3=N)cc2)c(O)c1 [Compound Z425227654] | 1 | –
11 | Cc1ccc(-c2cc(-c3ccccc3)c3ccccc3n2)cc1.Cl [Compound Z48951039] | 11 | –
12 | Cn1ncc2c(NCCOc3ccc4c(c3)OCO4)ncnc21 [Compound Z645593692] | -38 | –
13 | Cc1ccccc1Nc1nc(N)nc(CSc2ccccc2)n1 [Compound Z19751109] | 28 | –
14 | O=C(OCc1noc(C2CC2)n1)c1c[nH]cc1-c1ccc(Cl)s1 [Compound Z847574324] | 10 | –
15 | CCN(CCC#N)S(=O)(=O)c1cc(C)cc(S(C)(=O)=O)c1C [Compound Z1145197816] | -2 | –
16 | Cl.Oc1c(-c2ccccc2)nc2ccc(Cl)cc2c1-c1ccccc1 [Compound Z166605136] | 8 | –
17 | O=C1NCc2cccc(NS(=O)(=O)c3c(Cl)ccnc3Cl)c21 [Compound Z1556993367] | -3 | –
18 | COc1ccc(N(C)C(=O)c2[nH]nc(-c3ccccc3)c2Br)cn1 [Compound Z934680220] | -1 | –
19 | CS(=O)(=O)c1ccc(N2CCC2)c(S(C)(=O)=O)c1 [Compound Z666133744] | 8 | –
20 | CC(Nc1ccc2c(c1)OCCO2)C(=O)Nc1ccc(F)c(F)c1F (stereo not drawn) [Compound Z44489053] | 4 | –
21 | Cn1nccc1/C=C1\C(=O)Nc2ccccc21 [Compound Z336032014] | 2 | –
22 | CC1CN(C(=O)C2CCS(=O)(=O)C2)c2cc(F)ccc2CN1C(=O)OC(C)(C)C (stereo not drawn) [Compound Z1566941984] | -8 | –

Row | Compound | First screening IR (inhibition rate) [%] | Second screening IR (inhibition rate) (second screening, dissolved from fresh powder, n = 4) [%]
23 | CC(C)C(NC(=O)c1ccc(S(=O)(=O)N(C)C)cc1)c1ccc2c(c1)OCCCO2 (stereo not drawn) [Compound Z91218489] | 5 | –
24 | CCC(C)(C)C1C/C(=C/c2ccccc2Br)c2nc3ccccc3c(C(=O)O)c2C1 (stereo not drawn) [Compound Z46116650] | 23 | –
25 | CCCCCn1c(-c2ccc(Sc3ccc(C)cc3)c([N+](=O)[O-])c2)nc2c1c(=O)[nH]c(=O)n2CCCC [Compound Z50141536] | -20 | –
26 | CN(C)c1nccc(N2CCN(Cc3ccc(Cl)o3)CC2)n1 [Compound Z1569249080] | 27 | –
27 | Cc1ccnc(NC(=O)c2cc(-c3ccc(F)cc3)nc3onc(C)c23)c1 [Compound Z219812624] | -14 | –
28 | O=S(=O)(c1cccc(-c2n[nH]c(-c3ccccc3)c2-c2nc3ccccc3[nH]2)c1)N1CCCC1 [Compound Z56870429] | -20 | –
29 | COc1cccc(NC(=O)COc2ncnc3ccccc23)c1 [Compound Z18537695] | -1 | –
30 | CCN(CC)CCC1S(=O)(=O)CC(c2ccccc2)CS1(=O)=O (stereo not drawn) [Compound Z56768715] | 8 | –
31 | CS(=O)(=O)c1ccc(Cl)c(S(N)(=O)=O)c1 [Compound Z353972988] | 2 | –
32 | Cn1ccnc1C(O)(CCNC(=O)c1cccc(-c2cnc3[nH]c(=O)n(C)c3c2)c1)C(F)(F)F (stereo not drawn) [Compound Z1723428243] | 17 | –
33 | CCn1ncc2c(C(=O)OCC#N)cc(-c3cccs3)nc21 [Compound Z227189870] | 2 | –
34 | CCn1ncc2c(C(=O)NC(C)C)cc(-c3ccccc3)nc21 [Compound Z223848612] | 6 | –
35 | CCc1ccccc1NC(=O)CNC(=O)c1cc2ccccc2[nH]1 [Compound Z27562098] | 48 | –
36 | O=C(CSc1n[nH]c(-c2cccs2)n1)Nc1ccc(-c2ccccc2)cc1 [Compound Z19449989] | 4 | –
37 | CC(CCc1ccc(O)cc1)NC(=O)Nc1ccc(NC(=O)c2ccco2)cc1 (stereo not drawn) [Compound Z412774176] | -12 | –
38 | Clc1ccc(/C=C2/CCCc3c2nc2ncnn2c3-c2ccc(Cl)cc2Cl)c(Cl)c1 [Compound Z56798990] | 3 | –
39 | CCOC(=O)/C=c1\s/c(=C/c2ccc(N3CCCCC3)c([N+](=O)[O-])c2)c(=O)n1CC(=O)N1CCC(C)CC1 [Compound Z48712692] | 25 | –
40 | OC1CCC(Nc2ncnc3cccc(I)c23)CC1 (stereo not drawn) [Compound Z1661333590] | 10 | –
41 | Cc1cc(C)c(NC(=O)CNC(=O)COc2ccccc2C(=O)N2CCCCC2)c(C)c1 [Compound Z25138787] | -1 | –
42 | Cc1ccc(-c2c(C)sc3nc(CN4CCN(CC(=O)N5CCCCCC5)CC4)[nH]c(=O)c23)cc1 [Compound Z126044810] | -3 | –
43 | COC(=O)Cn1ncc2c(N3CCCC34CCCCC4)ncnc21 [Compound Z1527076116] | -3 | –

The next lines start with the values.

Row | First screening IR (inhibition rate) [%] | Second screening IR (inhibition rate) (second screening, dissolved from fresh powder, n = 4) [%] | Compound
44 | 5 | – | C=CCn1c(-c2ccc(Cl)cc2)nn(CN2CCN(C(=O)c3ccccc3F)CC2)c1=S [Compound Z358275910]
45 | -4 | – | Cc1cccc(C(C)C)c1NC(=O)CN1CCCCC1Cc1ccccc1 (stereo not drawn) [Compound Z991917352]
46 | -12 | – | CCN(CC)CCn1c(NC(=O)c2cc3c(C)nn(-c4ccc(Cl)cc4)c3s2)nc2ccccc21 [Compound Z29249972]
47 | -3 | – | O=S(=O)(c1ccccc1Cl)N1CCN(Cc2nc(-c3cccc(Cl)c3)no2)CC1 [Compound Z90240663]
48 | 54 | – | Cc1ccc(-n2c(SCC(=O)Nc3ccc(N4CCOCC4)cc3)nnc2-c2cccnc2)c(C)c1 [Compound Z18666705]
49 | 5 | – | C=CCNc1nc(C(=O)OCCCn2c(=O)[nH]c3ccccc32)cs1 [Compound Z17965676]
50 | -4 | – | CCOC(=O)/C=c1\s/c(=C/c2ccc(N3CCOCC3)c([N+](=O)[O-])c2)c(=O)n1CC(=O)N1CCC(C)CC1 [Compound Z48712790]
51 | 0 | – | CCCNC(=O)CN(CCC)C(=O)c1cc(-c2ccccc2)nc2c1cnn2CC [Compound Z729700802]
52 | -17 | – | C/C(N)=C(\C#N)C(=O)CSc1nnc(-c2ccccc2F)n1Cc1ccccc1 [Compound Z15780020]
53 | -5 | – | CCCCCn1c(=O)c2ccccc2n2c(SCC(=O)NC(=O)NC3CCCC(C)C3C)nnc12 (stereo not drawn) [Compound Z17895832]
54 | 12 | – | CCOC(=O)c1c(NC(=O)CN2CCN(c3cccc(Cl)c3)CC2)sc(Cc2ccc3c(c2)OCO3)c1C [Compound Z30983122]
55 | -8 | – | O=S(=O)(c1c(Cl)cccc1Cl)N1CCN(Cc2nc(-c3cccc(Cl)c3)no2)CC1 [Compound Z90231169]
56 | -15 | – | Cl.Fc1ccccc1-c1c2c(nc3ccc(Cl)cc13)-c1ccccc1OC2 [Compound Z48955788]
57 | -4 | – | Cc1sc2nc(CN3CCC(C)CC3)n(CC(=O)Nc3ccc(N4CCCC4)cc3)c(=O)c2c1C [Compound Z112958446]
58 | 7 | – | OCCNc1nc2ccccc2n1-c1ncnc2sc3c(c12)CCCC3 [Compound Z57981090]
59 | -1 | – | O=C(CCc1nnc2n(Cc3ccc(Cl)cc3)c(=O)c3ccccc3n12)NCCCN1CCOCC1 [Compound Z1157834172]
60 | 13 | – | CN1CCC(N(C)S(=O)(=O)c2ccc(NC(=O)Cc3ccc(F)cc3)cc2)CC1 [Compound Z28459327]
61 | 2 | – | O=C(NCCCn1ccnc1)/C(=C/c1ccc(-c2cccc(Cl)c2)o1)NC(=O)c1ccccc1 [Compound Z57239426]
62 | 39 | 20 | CCc1ccc(-n2c(-c3ccccc3)cn3c4c(=O)n(CCN5CCOCC5)c(=O)n(C)c4nc23)cc1 [Compound Z237376112]
63 | 5 | – | O=c1[nH]ncc(NCc2ccc(Cn3cnc4ccccc43)cc2)c1Cl [Compound Z951371090]
64 | 5 | – | NC(=S)c1cc(C(=O)c2ccccc2O)cn2c1nc1ccccc12 [Compound Z235467022]
65 | -6 | – | N#CCCN(CCN1CCOCC1)Cc1cn[nH]c1-c1c(F)cccc1F [Compound Z1470747510]
66 | -4 | – | NC(=O)c1ccc(COC(=O)CCc2ccc3ccccc3n2)c([N+](=O)[O-])c1 [Compound Z166077836]
67 | -2 | – | Cn1c(=O)c2ccc(C(=O)NCc3cc(Cl)ccn3)nc2n(C)c1=O [Compound Z1574547064]
68 | 14 | – | Cc1ccccc1-n1c(SCC(=O)c2cc(C)n(CC3CCCO3)c2C)nnc1N1CCOCC1 (stereo not drawn) [Compound Z92475228]
